Test results as given in patent publication US20210047324A1 (Aptinyx Inc., priority 2018, published 2021).
“And” between values parts separate entries of the source, which are not always exact repeats. Equal values may be shown once. Values belong to the compound of their own block, whether it stands above or below them.

Experiments:
NMDAR2B = molecular target: T1, NMDAR2B (Homo sapiens, UniProt Q13224); test: NMDAR agonist assay, [3H]MK-801 binding, NMDAR2B expressing HEK cell membranes; assay type: biochemical; parameters: key to NMDAR2B B: log EC50: 0=−; ≥1×10^−9 M (e.g., −8)=+; <1×10^−9 M (e.g., −10)=++; details: 50 μM glutamate; for EC50: read-out: NMDAR2B B: log EC50 (converted); for NMDAR2B A: % maximal [3H]MK-801 binding relative to 1 mM glycine / Emax: relative to 1 mM glycine; for Emax: read-out: NMDAR2B A: % maximal [3H]MK-801 binding relative to 1 mM glycine
T1 construct: expressed in transfected cells; host or cells: HEK cells (membrane extract)
T1 sequence (Q13224 27-1484, species assumed, other chains not shown): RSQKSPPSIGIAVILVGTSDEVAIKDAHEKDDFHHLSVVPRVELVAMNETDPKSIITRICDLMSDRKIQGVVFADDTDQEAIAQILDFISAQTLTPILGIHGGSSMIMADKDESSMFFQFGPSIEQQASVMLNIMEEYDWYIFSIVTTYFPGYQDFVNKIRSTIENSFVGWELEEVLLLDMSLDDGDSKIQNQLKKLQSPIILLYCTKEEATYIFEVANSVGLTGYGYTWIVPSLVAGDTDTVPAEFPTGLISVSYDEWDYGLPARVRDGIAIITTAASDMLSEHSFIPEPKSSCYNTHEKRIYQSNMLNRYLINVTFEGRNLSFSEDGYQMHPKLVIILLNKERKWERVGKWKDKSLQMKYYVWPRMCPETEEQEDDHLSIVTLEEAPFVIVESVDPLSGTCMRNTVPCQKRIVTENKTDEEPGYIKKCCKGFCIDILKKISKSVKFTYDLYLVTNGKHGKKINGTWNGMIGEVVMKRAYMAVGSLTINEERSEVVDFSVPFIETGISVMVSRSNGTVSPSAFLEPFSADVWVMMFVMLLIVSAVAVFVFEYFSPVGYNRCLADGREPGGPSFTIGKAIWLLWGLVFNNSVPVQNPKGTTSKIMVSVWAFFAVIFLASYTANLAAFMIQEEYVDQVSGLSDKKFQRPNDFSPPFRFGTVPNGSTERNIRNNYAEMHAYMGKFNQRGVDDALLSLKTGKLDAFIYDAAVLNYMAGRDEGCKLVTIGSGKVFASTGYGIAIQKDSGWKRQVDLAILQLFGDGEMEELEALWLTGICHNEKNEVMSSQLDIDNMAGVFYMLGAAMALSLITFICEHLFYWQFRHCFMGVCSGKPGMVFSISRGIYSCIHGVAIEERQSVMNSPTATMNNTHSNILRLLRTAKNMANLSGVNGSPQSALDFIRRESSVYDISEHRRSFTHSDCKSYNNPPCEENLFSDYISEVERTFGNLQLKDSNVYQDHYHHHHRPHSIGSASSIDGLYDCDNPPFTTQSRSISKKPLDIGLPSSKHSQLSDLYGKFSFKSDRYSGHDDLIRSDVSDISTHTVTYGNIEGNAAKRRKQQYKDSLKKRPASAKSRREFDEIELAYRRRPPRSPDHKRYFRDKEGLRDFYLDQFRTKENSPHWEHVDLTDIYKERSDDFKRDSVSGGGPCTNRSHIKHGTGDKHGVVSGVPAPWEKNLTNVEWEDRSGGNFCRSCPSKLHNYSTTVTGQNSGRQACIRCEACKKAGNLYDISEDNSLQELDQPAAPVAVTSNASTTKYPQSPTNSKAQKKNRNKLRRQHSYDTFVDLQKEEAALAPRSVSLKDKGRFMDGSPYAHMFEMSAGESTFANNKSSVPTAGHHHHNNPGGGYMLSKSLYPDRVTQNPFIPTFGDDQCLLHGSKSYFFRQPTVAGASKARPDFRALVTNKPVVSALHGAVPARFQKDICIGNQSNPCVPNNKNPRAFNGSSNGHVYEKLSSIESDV
Description: (§1) Assays were conducted as described by Moskal et al., “GLYX-13: a monoclonal antibody-derived peptide that acts as an N-methyl-D-aspartate receptor modulator,” Neuropharmacology, 49, 1077-87, 2005. These studies were designed to determine if the test compounds act to facilitate NMDAR activation in NMDAR2A, NMDAR2B, NMDAR2C or NMDAR2D expressing HEK cell membranes as measured by increases in [^3H]MK-801 binding.
(§2) In the assay, 300 μg of NMDAR expressing HEK cell membrane extract protein was preincubated for 15 minutes at […] in the presence of saturating concentrations of glutamate (50 μM) and varying concentrations of test compound (1×10^−15M-1×10^−7M), or 1 mM glycine. Following the addition of 0.3 μCi of [3H]MK-801 (22.5 Ci/mmol), reactions were again incubated for 15 minutes at 25° C. (nonequilibrium conditions). Bound and free [3H]MK-801 were separated via rapid filtration using a Brandel apparatus.
(§3) In analyzing the data, the DPM (disintegrations per minute) of [3H]MK-801 remaining on the filter were measured for each concentration of test compound or for 1 mM glycine. The DPM values for each concentration of a ligand (N=2) were averaged. The baseline value was determined from the best fit curve of the DPM values modeled using the GraphPad program and the log(agonist) vs. response (three parameters) algorithm was then subtracted from all points in the dataset. The % maximal [^3H]MK-801 binding was then calculated relative to that of 1 mM glycine: all baseline subtracted DPM values were divided by the average value for 1 mM glycine. The EC50 and % maximal activity were then obtained from the best fit curve of the % maximal [3H]MK-801 binding data modelled using the GraphPad program and the log(agonist) vs. response (three parameters) algorithm.
(§4) The tables below summarize the results for the wild type […] NMDAR2A, NMDAR2B, NMDAR2C, and NMDAR2D, and whether the compound is not an agonist (−), is an agonist (+), or is a strong agonist (++), where column A is based on the % maximal [3H]MK-801 binding relative to 1 mM glycine (−=0; <100%=+; and >100%=++); and column B is based on log EC50 values (0=−; ≥1×10^−9 M (e.g., −8)=+; and <1×10^−9 M (e.g., −10)=++).

[1] = Oral pharmacokinetics in Sprague Dawley rats (plasma, brain, CSF); assay type: in vivo; details: rat, 10 mg/kg; for Tmax / AUC(0-t) / bioavailability / Cmax: Sprague-Dawley, po, plasma; for Tmax / AUC(0-t) / Cmax / CSF Cmax / Brain Cmax: per os; for Tmax: read-out: Tmax; for bioavailability: per os 10 mg/kg; for Cmax: read-out: Cmax
Description: In another experiment, Sprague Dawley rats were dosed per os (oral gavage) using a normal saline formulation containing 10 mg/kg of the compounds identified in the table below. Plasma, brain, and CSF samples were analyzed at various time points over a 24 hour period. The table below summarizes the results of the oral pharmacokinetics, where the first three values (Tmax, Cmax and AUClast) are plasma values.

[2] = Microsomal stability (Human); assay type: in vitro ADME; details: after 60 minutes
Description: (§5) Microsomal stability of disclosed compounds was investigated. The following table indicates the percent of compound remaining after 60 minutes.

[3] = IV pharmacokinetics in Sprague Dawley rats; assay type: in vivo; details: Sprague-Dawley, rat, in vivo, iv, 2 mg/kg, normal saline; for Cmax: read-out: Cmax; for Vd: read-out: Vss
Description: Sprague Dawley rats were dosed intravenously using a normal saline formulation containing 2 mg/kg of the compounds identified in the below table. The table below summarizes the results of the IV pharmacokinetics.

[4] = Microsomal stability (Rat); assay type: in vitro ADME; details: after 60 minutes
Description: as §5

NMDAR2A = molecular target: T2, NMDAR2A (Homo sapiens, UniProt Q12879); test: NMDAR agonist assay, [3H]MK-801 binding, NMDAR2A expressing HEK cell membranes; assay type: biochemical; parameters: key to NMDAR2A B: log EC50: 0=−; ≥1×10^−9 M (e.g., −8)=+; <1×10^−9 M (e.g., −10)=++; details: 50 μM glutamate; for EC50: read-out: NMDAR2A B: log EC50 (converted); for Emax: 0.25 h, read-out: NMDAR2A A: % maximal [3H]MK-801 binding relative to 1 mM glycine; for NMDAR2A A: % maximal [3H]MK-801 binding relative to 1 mM glycine / Emax: relative to 1 mM glycine
T2 construct: expressed in transfected cells; host or cells: HEK cells (membrane extract)
T2 sequence (Q12879 23-1464, species assumed, other chains not shown): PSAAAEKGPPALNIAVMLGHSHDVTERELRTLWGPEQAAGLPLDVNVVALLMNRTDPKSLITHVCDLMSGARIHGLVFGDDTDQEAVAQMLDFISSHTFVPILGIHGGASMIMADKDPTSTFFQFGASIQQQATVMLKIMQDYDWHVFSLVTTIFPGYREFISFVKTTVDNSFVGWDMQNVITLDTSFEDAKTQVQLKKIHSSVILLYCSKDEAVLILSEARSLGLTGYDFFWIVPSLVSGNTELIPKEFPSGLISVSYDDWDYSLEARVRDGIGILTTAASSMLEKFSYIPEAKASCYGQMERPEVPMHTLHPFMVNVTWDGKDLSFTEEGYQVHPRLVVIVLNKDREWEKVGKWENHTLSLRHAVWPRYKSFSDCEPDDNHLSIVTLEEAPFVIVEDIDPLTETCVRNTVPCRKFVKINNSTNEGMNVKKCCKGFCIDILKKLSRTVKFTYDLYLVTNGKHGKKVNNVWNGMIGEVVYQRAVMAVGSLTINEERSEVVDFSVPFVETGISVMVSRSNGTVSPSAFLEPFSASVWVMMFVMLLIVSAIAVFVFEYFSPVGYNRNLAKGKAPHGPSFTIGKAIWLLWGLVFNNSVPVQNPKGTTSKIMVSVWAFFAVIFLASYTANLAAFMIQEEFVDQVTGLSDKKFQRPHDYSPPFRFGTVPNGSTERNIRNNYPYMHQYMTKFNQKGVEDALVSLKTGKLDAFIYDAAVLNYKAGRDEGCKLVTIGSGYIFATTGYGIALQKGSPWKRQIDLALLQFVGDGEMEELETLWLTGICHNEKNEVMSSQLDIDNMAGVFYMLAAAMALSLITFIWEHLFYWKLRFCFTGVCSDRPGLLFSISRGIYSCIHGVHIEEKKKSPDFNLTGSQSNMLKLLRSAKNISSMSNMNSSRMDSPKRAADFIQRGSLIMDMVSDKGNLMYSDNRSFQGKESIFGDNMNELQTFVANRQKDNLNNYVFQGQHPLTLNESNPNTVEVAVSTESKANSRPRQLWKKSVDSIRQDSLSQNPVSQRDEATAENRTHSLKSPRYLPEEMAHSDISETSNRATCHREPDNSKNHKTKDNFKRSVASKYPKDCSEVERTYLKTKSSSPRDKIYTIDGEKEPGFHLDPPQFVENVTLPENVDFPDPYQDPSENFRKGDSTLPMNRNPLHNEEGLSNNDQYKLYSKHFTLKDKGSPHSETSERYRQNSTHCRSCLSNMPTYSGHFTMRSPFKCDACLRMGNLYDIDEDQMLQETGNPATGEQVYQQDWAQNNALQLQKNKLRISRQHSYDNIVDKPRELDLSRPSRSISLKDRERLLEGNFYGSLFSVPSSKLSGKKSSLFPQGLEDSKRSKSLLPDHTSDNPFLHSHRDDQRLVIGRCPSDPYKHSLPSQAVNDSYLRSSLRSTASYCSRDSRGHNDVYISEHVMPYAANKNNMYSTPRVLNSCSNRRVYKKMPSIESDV
Description: as §1, §2, §3, §4

Sprague Dawley rats = test: Porsolt forced swim test; assay type: in vivo; details: 1 h post-dose, 0.1 mg/kg
Description: A non-clinical in vivo pharmacology study (Porsolt assay) was performed to measure antidepressant-like effects. The study allowed for the evaluation of the effects of each compound on the Porsolt forced swim test as assessed by the rats' response (reduced floating time) during a 5-minute swimming test.
Male 2-3 month old Sprague Dawley rats were used (Harlan, Indianapolis, Ind.). Rats were housed in Lucite cages with aspen wood chip bedding, maintained on a 12:12 light:dark cycle (lights on at 5 AM), and given ad libitum access to Purina lab chow (USA) and tap water throughout the study.
The Porsolt forced swim test adapted for use in rats was performed as described by Burgdorf et al., (The long-lasting antidepressant effects of rapastinel (GLYX-13) are associated with a metaplasticity process in the medial prefrontal cortex and hippocampus. Neuroscience 308:202-211, 2015). Animals were placed in a 46 cm tall×20 cm in diameter clear glass tube filled to 30 cm with tap water (23±1° C.) for 15 min on the first day (habituation) and 5 min on the subsequent test day. Animals were tested 1 h or 24 h post-dosing with the test compounds or vehicle control (0.5% sodium carboxymethyl cellulose in 0.9% sterile saline). A subset of compounds tested at 1 h post-dosing was tested again 1 wk post-dosing. Animals received a 15 min habituation session 1 day before the first 5 min test. Water was changed after every other animal. Animals were videotaped, and floating time as defined as the minimal amount of effort required to keep the animals head above water was scored offline by a blinded experimenter with high inter-rater reliability (Pearson's r >0.9).

Plasma stability (Rat) = assay type: in vitro ADME; details: after 60 minutes
Description: (§6) Plasma stability of disclosed compounds was investigated. The following table indicates the percent of compound remaining after 60 minutes.

Plasma stability (Human) = assay type: in vitro ADME; details: after 60 minutes
Description: as §6

EC50 (NMDAR2B): < 1 nM
NMDAR2B A: % maximal [3H]MK-801 binding relative to 1 mM glycine (NMDAR2B): ++ (>100%=++)
Tmax [1]: 25.2 min
AUC(0-t) [1]: 11300 ng·h/mL
bioavailability [1]: 100%
Cmax [1]: 5300 ng/mL
CSF Cmax [1]: 2296.73 ng/mL
Brain Cmax [1]: 1424.03 ng/mL
Microsomal (Human): percent of compound remaining [2]: 87%
AUC(0-t) [3]: 1990 ng·h/mL
clearance [3]: 16.7 mL/min/kg
half-life [3]: 25.8 min
Cmax [3]: 1500 ng/mL
Vd [3]: 0.75 L/kg
Microsomal (Rat): percent of compound remaining [4]: 104%
EC50 (NMDAR2A): < 1 nM
NMDAR2A A: % maximal [3H]MK-801 binding relative to 1 mM glycine (NMDAR2A): + (<100%=+)
SMILES: CC(C)C(=O)N1CCCC12CC=CCNC2=O (single isomer, unassigned) [GH-2, 1-isobutyryl-1,7-diazaspiro[4.6]undec-9-en-6-one]

EC50 (NMDAR2B): < 1 nM
Emax (NMDAR2B): < 100%
EC50 (NMDAR2A): < 1 nM
Emax (NMDAR2A): < 100%
SMILES: CC(=O)N1CCCC12CC=CCNC2=O (single isomer, unassigned) [GG-1, 1-acetyl-1,7-diazaspiro[4.6]undec-9-en-6-one]

EC50 (NMDAR2B): < 1 nM
Emax (NMDAR2B): > 100%
Tmax [1]: 25.2 min
AUC(0-t) [1]: 4430 ng·h/mL
bioavailability [1]: 87%
Cmax [1]: 2400 ng/mL
CSF Cmax [1]: 744.03 ng/mL
Brain Cmax [1]: 2578.7 ng/mL
Microsomal (Human): percent of compound remaining [2]: 115% and 67%
AUC(0-t) [3]: 1020 ng·h/mL
clearance [3]: 32.2 mL/min/kg
half-life [3]: 40.8 min
Cmax [3]: 1210 ng/mL
Vd [3]: 1.78 L/kg
Plasma (Rat): percent of compound remaining (Plasma stability (Rat)): 89%
Plasma (Human): percent of compound remaining (Plasma stability (Human)): 97%
EC50 (NMDAR2A): < 1 nM
Emax (NMDAR2A): < 100%
SMILES: CN1CCCC12CC=CCNC2=O (single isomer, unassigned) [GC-1, 1-methyl-1,7-diazaspiro[4.6]undec-9-en-6-one]

NMDAR2B B: log EC50 (NMDAR2B): −
Emax (NMDAR2B): 0%
NMDAR2A B: log EC50 (NMDAR2A): −
NMDAR2A A: % maximal [3H]MK-801 binding relative to 1 mM glycine (NMDAR2A): − (−=0)
SMILES: CN1CC=CCC2(CCCN2C)C1=O (stereo not drawn) [listing 1 of 2 here]

NMDAR2B B: log EC50 (NMDAR2B): −
NMDAR2B A: % maximal [3H]MK-801 binding relative to 1 mM glycine (NMDAR2B): − (−=0)
EC50 (NMDAR2A): < 1 nM
NMDAR2A A: % maximal [3H]MK-801 binding relative to 1 mM glycine (NMDAR2A): + (<100%=+)
SMILES: CN1CC=CCC2(CCCN2C)C1=O (stereo not drawn) [listing 2 of 2 here]

EC50 (NMDAR2B): < 1 nM
NMDAR2B A: % maximal [3H]MK-801 binding relative to 1 mM glycine (NMDAR2B): + (<100%=+)
Microsomal (Human): percent of compound remaining [2]: 82% and 100%
Plasma (Rat): percent of compound remaining (Plasma stability (Rat)): 103%
Plasma (Human): percent of compound remaining (Plasma stability (Human)): 98%
EC50 (NMDAR2A): ≥ 1 nM
NMDAR2A A: % maximal [3H]MK-801 binding relative to 1 mM glycine (NMDAR2A): + (<100%=+)
SMILES: CN1CCCC12CC=CCNC2=O (single isomer, unassigned) [GC-2, 1-methyl-1,7-diazaspiro[4.6]undec-9-en-6-one]

Further lines, the compound ahead of its results:

SMILES: O=C1NCCCC12CCCNC2 (single isomer, unassigned) [CD, 2,8-diazaspiro[5.5]undecan-1-one]
EC50 (NMDAR2B): < 1 nM
Emax (NMDAR2B): < 100%
EC50 (NMDAR2A): < 1 nM
Emax (NMDAR2A): < 100%

SMILES: O=C1NCCCC12CCCN2 (stereo not drawn) [EU-1, 1,7-diazaspiro[4.5]decan-6-one]
EC50 (NMDAR2B): < 1 nM
Emax (NMDAR2B): < 100%
NMDAR2A B: log EC50 (NMDAR2A): −
Emax (NMDAR2A): 0%

SMILES: O=C1N(Cc2ccc(F)cc2)CC=CCC12CCCN2 (single isomer, unassigned) [GK-1, 7-(4-fluorobenzyl)-1,7-diazaspiro[4.6]undec-9-en-6-one]
EC50 (NMDAR2B): < 1 nM
Emax (NMDAR2B): > 100%
Tmax [1]: 30 min
AUC(0-t) [1]: 718 ng·h/mL
bioavailability [1]: 43%
Cmax [1]: 642 ng/mL
CSF Cmax [1]: 322.45 ng/mL
Brain Cmax [1]: 3368.95 ng/mL
AUC(0-t) [3]: 335 ng·h/mL
clearance [3]: 98.4 mL/min/kg
half-life [3]: 32.4 min
Cmax [3]: 854 ng/mL
Vd [3]: 3.01 L/kg
% reduction in float time (Sprague Dawley rats): 24%
Significance vs. vehicle (Sprague Dawley rats): No
EC50 (NMDAR2A): < 1 nM
NMDAR2A A: % maximal [3H]MK-801 binding relative to 1 mM glycine (NMDAR2A): + (<100%=+)

SMILES: O=C1NCC=CCC12CC(F)(F)CN2 (single isomer, unassigned) [GL-1, 3,3-difluoro-1,7-diazaspiro[4.6]undec-9-en-6-one]
EC50 (NMDAR2B): < 1 nM
Emax (NMDAR2B): < 100%
EC50 (NMDAR2A): < 1 nM
Emax (NMDAR2A): < 100%

SMILES: CC(C)C(=O)N1CCC2(CCCN2C(=O)C(C)C)C1=O (single isomer, unassigned) [GU-2, 1,1′-(6-oxo-1,7-diazaspiro[4.4]nonane-1,7-diyl)bis(2-methylpropan-1-one)]
EC50 (NMDAR2B): < 1 nM
NMDAR2B A: % maximal [3H]MK-801 binding relative to 1 mM glycine (NMDAR2B): + (<100%=+)
EC50 (NMDAR2A): < 1 nM
NMDAR2A A: % maximal [3H]MK-801 binding relative to 1 mM glycine (NMDAR2A): + (<100%=+)

SMILES: O=C1NCCCCC12CCCCN2 (single isomer, unassigned) [BA, 1,8-diazaspiro[5.6]dodecan-7-one]
EC50 (NMDAR2B): < 1 nM
EC50 (NMDAR2A): < 1 nM

SMILES: CN1CC=CCC2(CCCN2Cc2ccccc2)C1=O (single isomer, unassigned) [GT-2, 1-benzyl-7-methyl-1,7-diazaspiro[4.6]undec-9-en-6-one]
EC50 (NMDAR2B): ≥ 1 nM
EC50 (NMDAR2A): < 1 nM

SMILES: CC(C)(C)OC(=O)N1CCCCCC12CNC2=O (single isomer, unassigned) [EI-2, tert-butyl 1-oxo-2,5-diazaspiro[3.6]decane-5-carboxylate]
EC50 (NMDAR2A): < 1 nM

SMILES: O=C1NCCCCC12CCCNC2 (single isomer, unassigned) [CG, 2,8-diazaspiro[5.6]dodecan-7-one]
EC50 (NMDAR2B): < 1 nM
EC50 (NMDAR2A): < 1 nM

SMILES: O=C1NCCCC12CCCNC2 (single isomer, unassigned) [CE, 2,8-diazaspiro[5.5]undecan-1-one]
EC50 (NMDAR2B): < 1 nM
EC50 (NMDAR2A): < 1 nM
